Here are results for eight compounds from patent US10689327B2, “Prodrug amino acid derivative” (TAISHO PHARMACEUTICALS CO., LTD., priority 2016, dated 2020).

In one experiment the target is mGlu2 receptor (Homo sapiens (Human), UniProt Q14416). The note with it: reported in literature; cited from earlier work.
The target of experiment [1] is human metabotropic glutamate receptor mGluR3 (Homo sapiens (Human), UniProt Q14832). Briefly: [35S]GTPγS binding test, mGluR3. In kind it is biochemical. The note with it: inhibition of glutamate (1 μM)-stimulated [35S]GTPγS specific binding, CHO cell membranes. The method, then:
(§1) Test 1 [^35S]GTPγS binding test
(§2) CHO cells stably expressing human metabotropic glutamate receptors mGluR2 and mGluR3 were cultured at 37° C. under 5% CO2 using a Dulbecco's modified Eagle medium [1% proline, 1 mM sodium pyruvate, 1 mM succinic acid, 1 mM disodium succinate, 100 units/mL penicillin, 100 μg/mL streptomycin, 400 (mGluR2) or 300 (mGluR3) μg/mL hygromycin B, 2 mM L-glutamine (added just before use)] containing 10% dialyzed fetal bovine serum. The cells in a confluent state were washed with PBS(−), then dissociated using a cell scraper, and centrifuged at 1000 rpm for 5 minutes at 4° C. to recover the cells. The obtained pellet was suspended in a 20 mM HEPES buffer (pH 7.4) (mGluR2) or 20 mM HEPES buffer containing 1 mM EDTA (pH 7.4) (mGluR3), and the suspension was homogenized in a Teflon® homogenizer and then centrifuged at 48,000×g for 20 minutes at 4° C. to obtain a pellet again. The obtained pellet was subjected to two additional cycles of washing and centrifugation and then homogenized with the buffer described above to obtain a crude membrane fraction. The crude membrane fraction was diluted with a buffer for a binding test (final concentration: 20 mM HEPES, 100 mM NaCl, 10 mM MgCl2, 10 μM GDP, […], 0.1% BSA) (mGluR2) or (final concentration: 20 mM HEPES, 1 mM EDTA, 100 mM NaCl, 10 mM MgCl2, 10 μM GDP, 10 μg/mL saponin, 0.1% BSA) (mGluR3). To the crude membrane fraction containing 10 μg of membrane proteins/assay, Compounds (II)-1 to (II)-15 were each added, and the mixture was incubated at 30° C. for 20 minutes. Then, glutamate (final concentration: 20 (mGluR2) or 1 (mGluR3) μM) and [^35S]GTPγS (final concentration: 0.15 nM) were added thereto, and the mixture was incubated at 30° C. for 1 hour. The solution thus incubated was filtered by suction onto Whatman GF/C filter, and the filter was washed with 1000 μL of an ice-cooled 20 mM HEPES buffer (pH 7.4) (mGluR2) or 20 mM HEPES buffer containing 1 mM EDTA (pH 7.4) (mGluR3). A scintillation cocktail was added to the obtained filter, and the membrane binding radioactivity was measured using a liquid scintillation counter. The residual radioactivity in the absence of glutamate was defined as nonspecific binding, and the difference from the residual radioactivity in the presence of glutamate was defined as specific binding. From the percent inhibition of specific binding at varying concentrations of Compounds (II)-1 to (II)-15, an inhibition curve was obtained using nonlinear analysis. The concentrations at which Compounds (II)-1 to (II)-15 inhibited 50% of specific binding (IC50) were calculated from the inhibition curve.

The target in experiment [2] is human metabotropic glutamate receptor mGluR2 (Homo sapiens (Human), UniProt Q14416). Briefly: [35S]GTPγS binding test, mGluR2. The note with it: inhibition of glutamate (20 μM)-stimulated [35S]GTPγS specific binding, CHO cell membranes. The format is biochemical. The method, then: as §1, §2
Sequence of human metabotropic glutamate receptor mGluR2 (Q14416 19-872): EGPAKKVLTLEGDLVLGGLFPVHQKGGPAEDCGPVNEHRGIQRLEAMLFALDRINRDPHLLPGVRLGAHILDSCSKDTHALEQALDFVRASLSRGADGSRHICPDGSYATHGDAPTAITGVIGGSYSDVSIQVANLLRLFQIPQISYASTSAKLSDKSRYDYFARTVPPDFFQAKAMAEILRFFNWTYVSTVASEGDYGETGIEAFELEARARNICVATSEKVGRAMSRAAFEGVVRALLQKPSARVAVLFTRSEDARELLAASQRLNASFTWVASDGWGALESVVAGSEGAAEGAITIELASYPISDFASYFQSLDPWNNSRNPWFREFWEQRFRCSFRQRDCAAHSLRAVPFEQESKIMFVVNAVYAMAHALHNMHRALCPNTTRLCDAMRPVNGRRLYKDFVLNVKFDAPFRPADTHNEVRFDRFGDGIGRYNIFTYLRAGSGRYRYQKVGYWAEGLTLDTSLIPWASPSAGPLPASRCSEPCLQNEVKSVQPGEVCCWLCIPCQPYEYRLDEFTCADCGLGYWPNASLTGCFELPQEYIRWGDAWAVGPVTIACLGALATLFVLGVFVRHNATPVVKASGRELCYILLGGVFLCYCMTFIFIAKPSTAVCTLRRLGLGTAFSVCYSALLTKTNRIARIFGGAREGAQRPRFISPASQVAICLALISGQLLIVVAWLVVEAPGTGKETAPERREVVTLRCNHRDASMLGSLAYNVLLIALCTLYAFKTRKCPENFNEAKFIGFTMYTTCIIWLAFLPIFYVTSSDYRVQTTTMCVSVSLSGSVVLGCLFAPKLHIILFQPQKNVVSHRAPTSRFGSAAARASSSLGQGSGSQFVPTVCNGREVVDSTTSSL
Background: GTPγS is a poorly hydrolysed GTP analogue; its binding reports G protein activation.

A further experiment addresses mGlu3 receptor (Homo sapiens (Human), UniProt Q14832). Particulars: reported in literature; cited from earlier work.
Another experiment deals with rats. The note with it: 1 mg/kg; cited from earlier work.
In another experiment the test system is mice. Particulars: cited from earlier work.

Sequence of human metabotropic glutamate receptor mGluR3 (Q14832 23-879): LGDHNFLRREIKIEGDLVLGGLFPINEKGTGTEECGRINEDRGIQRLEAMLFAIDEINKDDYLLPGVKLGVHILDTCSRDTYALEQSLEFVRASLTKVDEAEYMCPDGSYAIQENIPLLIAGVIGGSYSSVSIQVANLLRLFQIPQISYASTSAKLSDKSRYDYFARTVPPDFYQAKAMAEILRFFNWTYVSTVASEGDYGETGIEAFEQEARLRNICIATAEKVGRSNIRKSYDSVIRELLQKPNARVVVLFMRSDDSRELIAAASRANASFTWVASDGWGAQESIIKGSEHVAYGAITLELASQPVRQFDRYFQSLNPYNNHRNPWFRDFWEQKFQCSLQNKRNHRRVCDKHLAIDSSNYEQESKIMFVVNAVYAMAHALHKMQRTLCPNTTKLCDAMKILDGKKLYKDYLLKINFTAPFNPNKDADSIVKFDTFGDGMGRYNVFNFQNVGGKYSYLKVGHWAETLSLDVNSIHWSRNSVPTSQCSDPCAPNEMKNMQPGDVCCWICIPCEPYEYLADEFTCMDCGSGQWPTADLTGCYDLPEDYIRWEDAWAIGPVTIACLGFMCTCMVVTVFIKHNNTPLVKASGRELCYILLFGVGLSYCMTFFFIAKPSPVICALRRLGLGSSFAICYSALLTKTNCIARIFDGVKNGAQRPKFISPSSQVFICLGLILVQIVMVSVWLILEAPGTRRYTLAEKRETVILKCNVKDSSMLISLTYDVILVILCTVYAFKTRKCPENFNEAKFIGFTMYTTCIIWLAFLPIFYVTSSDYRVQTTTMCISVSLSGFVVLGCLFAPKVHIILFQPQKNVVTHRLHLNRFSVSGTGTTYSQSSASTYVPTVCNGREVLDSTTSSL
Sequence of mGlu2 receptor (Q14416 19-872): as the sequence (Q14416 19-872) above
Sequence of mGlu3 receptor (Q14832 23-879): as the sequence (Q14832 23-879) above

The term IC50 denotes the point on the concentration scale where inhibition reaches its midpoint. With `N[C@]1(C(=O)O)[C@H]2[C@@H](C[C@H]1OCc1ccc(F)cc1)[C@]2(F)C(=O)O` [Compound (II)-1, (1R,2R,3R,5R,6R)-2-amino-6-fluoro-3-[(4-fluorophenyl)methoxy]bicyclo[3.1.0]hexane-2,6-dicarboxylic acid], on mGlu2 receptor, the “antagonistic activity (mGlu2 receptor)” value is given as no more than 500 nM. Also, the figures for the 50% inhibitory concentration (IC50) in experiment [1] and in experiment [2] were 36.4 nM and 36.1 nM, respectively.

Consider `N[C@]1(C(=O)O)[C@H]2[C@@H](C[C@H]1OCc1ccc(F)c(F)c1)[C@]2(F)C(=O)O` [Compound (II)-2, (1R,2R,3R,5R,6R)-2-amino-3-[(3,4-difluorophenyl)methoxy]-6-fluorobicyclo[3.1.0]hexane-2,6-dicarboxylic acid], for which the “antagonistic activity (mGlu2 receptor)” value on mGlu2 receptor was no more than 500 nM. The IC50 in experiment [1] is 14.8 nM; in experiment [2] it was 18.8 nM.

Take `CCCO[C@@H]1C[C@@H]2[C@H]([C@]1(N)C(=O)O)[C@@]2(F)C(=O)O` [Compound (II)-3, (1R,2R,3R,5R,6R)-2-amino-6-fluoro-3-propoxybicyclo[3.1.0]hexane-2,6-dicarboxylic acid]: at mGlu2 receptor, the “antagonistic activity (mGlu2 receptor)” value is given as no more than 500 nM. In addition, the values for the IC50 in experiment [1] and in experiment [2] were 321 nM and 75.1 nM, respectively.

Regarding `Cc1ccc(CO[C@@H]2C[C@@H]3[C@H]([C@]2(N)C(=O)O)[C@@]3(F)C(=O)O)cc1` [Compound (II)-12, (1R,2R,3R,5R,6R)-2-amino-6-fluoro-3-[(4-methylphenyl)methoxy]bicyclo[3.1.0]hexane-2.6-dicarboxylic acid], the IC50 was 54.4 nM in experiment [1] and 24.6 nM in experiment [2].

For the compound `N[C@]1(C(=O)O)[C@H]2[C@@H](C[C@H]1OCc1cc[nH]c(=O)c1)[C@]2(F)C(=O)O` [Compound (II)-13, (1R,2R,3R,5R,6R)-2-amino-6-fluoro-3-[(2-oxo-1,2-dihycropyridin-4-yl)methoxy]bicyclo[3.1.0]hexane-2.6-dicarboxylic acid], the IC50 in experiment [1] came out at 4.35 nM; in experiment [2], 37.3 nM.

As for `N[C@]1(C(=O)O)[C@H]2[C@@H](C[C@H]1OCc1ccc(F)c(F)c1)[C@@H]2C(=O)O` [Compound (II)-14, (1S,2R,3R,5R,6S)-2-amino-3-[(3,4-difluorophenyl)methoxy]bicyclo[3.1.0]hexane-2,6-dicarboxylic acid], the IC50 came out at 15.2 nM in experiment [1] and 30.1 nM in experiment [2].

For the compound `N[C@]1(C(=O)O)[C@H]2[C@@H](C[C@H]1OCc1ccc(F)cc1)[C@@H]2C(=O)O` [Compound (II)-15, (1S,2R,3R,5R,6S)-2-amino-3-[(4-fluorophenyl)methoxy]bicyclo[3.1.0]hexane-2,6-dicarboxylic acid], the IC50 in experiment [1] was 60.5 nM; in experiment [2], 32.7 nM.

For `N[C@]1(C(=O)O)[C@H]2[C@@H](C[C@H]1OCc1ccc(Cl)c(Cl)c1)[C@]2(F)C(=O)O` [MGS0039], the “antagonistic activity (mGlu3 receptor)” value on mGlu3 receptor is 24 nM. Besides, the “antagonistic activity (mGlu2 receptor)” value on mGlu2 receptor is recorded as 20 nM. Moreover, in the experiment on rats, the “immobility time in the forced swimming test” value was “sufficient to suppress immobility time”. The “immobility time in the tail suspension test” value in the experiment on mice is on record as “shortens immobility time”.
